Marks after values point to notes of the source that are not given here.
What was measured:
[1] = test system: New Zealand White rabbits; assay: Histological observation of the organs of treated rabbits (Experimental Example 7, Step 5); format: in vivo, rabbit; conditions: 8 weeks
Description: Tissues of the lung, myocardium, kidney and muscle taken from the rabbits treated with the phenolic acid derivatives (BN30063, BN30064, BN30067) were visually examined for pathological changes using a microscope.

[2] = test system: New Zealand White rabbits; assay: Chemical analysis of blood of cholesterol-fed rabbits (Experimental Example 7, Step 3); conditions: 8 weeks
Method: Healthy male New Zealand White rabbits, each weighing about 2.0 to 2.3 kg, were supplied from Yeonam Horticulture and Animal Husbandry College (Korea) and raised under a breeding environment of temperature 20±2° C., relative humidity 55±10%, and photoperiod 12L/12D. […] The rabbits were fed for 8 weeks while being allowed free access to the diets and water.

Sprague-Dawley rats = assay: Effect on hyperlipemia in rats fed high-cholesterol diet (Experimental Example 6); format: in vivo, rat; conditions: rats on 1% cholesterol diet, 6 weeks; for Atherogenic index (AI): (total cholesterol − HDL cholesterol)/HDL cholesterol; for HDL-cholesterol / Neutral fat / Total cholesterol: 0.02% lovastatin, 0.039% BN30063, 0.040% BN30064, 0.041% BN30067 in diet; for HDL-cholesterol / Neutral fat / Total cholesterol / HDL-cholesterol/total cholesterol: average
Description: 50 of 4-week-old male white Sprague-Dawley rats (Bio Genomics Inc., Korea), each weighing about 90 to 110 g, were divided into five groups by a randomized block design. The rats of the five groups were fed with five different high-cholesterol diets, i.e., AIN-76 laboratory animal diets (TEKLAD premier Co., Madison, Wis., U.S.A.) containing 1% cholesterol (Control group), 1% cholesterol plus 0.02% lovastatin (Choongwae Pharma. Corp., Korea), 1% cholesterol plus 0.039% BN30063, 1% cholesterol plus 0.040% BN30064, and 1% cholesterol plus 0.041% BN30067, respectively, as shown in Table VII.
The animals were allowed free access to the specified diets and water for 6 weeks and the ingestion amounts were recorded daily. The rats were weighed every 7 days, and then the record was analyzed.
Blood samples were taken from vena hypogastrica of the rats of the five dietary groups raised for six weeks in Step 1. The blood was allowed to stand for 2 hours and centrifuged at 3,000 rpm for 15 minutes and the supernatant containing serum was separated and stored in a deep freezer before use. The total cholesterol level was measured using a diagnosis kit purchased from Sigma, Cat. No.: C0534, applying the method of Allain et al. (Allain et al., Clin. Chem., 20, 470-475 (1974)). The HDL fraction was separated using a kit purchased from Sigma, Cat. No.: 352-1 applying the heparin-manganese precipitation method (Waenic R. G. and Albers J. J., J Lipid Res., 19, 65-76 (1978)) and the HDL-cholesterol level was measured using a kit purchased from Sigma, Cat. No.: C9908. The neutral fat level was measured using a kit purchased from Sigma, Cat. No.: 336-10) applying the lipase-glycerol phosphate oxidase method (McGowan, M. W. et al., Clin. Chem., 29, 538-542(1983)).

ACAT = ACAT activity in liver microsomes of treated rats (Experimental Example 6, Step 3); format: in vivo, rat; conditions: liver microsomes of rats fed 6 weeks; for ACAT activity: average; for ACAT activity inhibition: relative to control group
Method: 1 g of the liver tissue taken from each sacrificed rat of Step 1 was homogenized in 5 ml of the first homogenization medium {0.1 M KH2PO4(pH 7.4), 0.1 mM EDTA and 10 mM β-mercaptoethanol}. The homogenate was centrifuged at 3,000×g for 15 minutes at 4° C. and the supernatant thus obtained was put into a tube and centrifuged at 15,000×g for 15 minutes at 4° C. to obtain a supernatant. The resulting supernatant was put into a 5 mL ultracentrifuge tube (Beckman) and centrifuged at 100,000×g for 1 hour at 4° C. The supernatant was removed off and pellets thus obtained were suspended in 3 mL of the first homogenization medium and centrifuged at 100,000×g for 1 hour at 4° C. The resulting supernatant was removed off and pellets thus obtained were suspended in 1 ml of the first homogenization medium. The resulting suspension was stored in a deep freezer.
6.67 μl of 1 mg/ml cholesterol solution in acetone was mixed with 6 μl of 10% Triton WR-1339 (Sigma Co.) in acetone. Acetone was removed from the mixture by evaporation under a nitrogen flow. To the resulting mixture, distilled water was added to adjust the concentration of cholesterol to 300 mg/10 ml. 10 μl of the resulting aqueous cholesterol solution was mixed with 10 μl of 1 M KH2PO4 (pH 7.4), 5 μl of 0.6 mM bovine serum albumin (BSA), 10 μl of the microsome solution obtained as above and 55 μl of distilled water (total 90 μl). The mixture was pre-incubated in a water bath at 37° C. for 30 minutes.
10 μl of oleyl-CoA solution […] prepared by mixing radiolabelled oleyl-CoA with oleyl-CoA was added to the pre-incubated mixture and the resulting mixture was incubated in a water bath at 37° C. for 30 minutes. 500 μl of isopropanol:heptane mixture (4:1 (v/v)), 300 μl of heptane and 200 μl of 0.1 M KH2PO4 (pH 7.4) were added to the mixture. The mixture was mixed vigorously using a vortex mixer and then allowed to stand at room temperature for 2 minutes.
200 μl of the resulting supernatant was put in a scintillation bottle and 4 mL of scintillation fluid (Lumac) was added thereto. The mixture was assayed for radioactivity with a scintillation counter. ACAT activity was calculated from the measured radioactivity, which was used to determine the ACAT activity inhibition (%).

[3] = test system: New Zealand White rabbits; assay: Morphological observation of liver tissue of cholesterol-fed rabbits (Experimental Example 7, Step 4)
Method: Healthy male New Zealand White rabbits, each weighing about 2.0 to 2.3 kg, were supplied from Yeonam Horticulture and Animal Husbandry College (Korea) and raised under a breeding environment of temperature 20±2° C., relative humidity 55±10%, and photoperiod 12L/12D. The rabbits were divided into 5 groups, which were fed with 5 different diets, i.e., the control group fed with RC4 diet (Oriental Yeast Co., Japan) comprising moisture (7.6%), crude protein (22.8%), crude fat (2.8%), crude ash (8.8%), crude cellulose (14.4%) and soluble nitrogen-free substances (43.7%) plus cholesterol (1%) and four treatment groups further fed with lovastatin or BN30063, BN30064, BN30067 in addition to the feed of the control group. The rabbits were fed for 8 weeks while being allowed free access to the diets and water.
Proportions of cells in the liver acinus containing excessive fat or modified to have irregular arrangement due to a high cholesterol diet were classified into four grades, from 1+ to 4+.

[4] = 1% cholesterol diet, lovastatin 1 mg/kg, BN compounds 0.025%, average ± standard deviation

Row | Pathological changes in lung, myocardium, kidney and muscle (microscope) [1] | Grade of abnormal fat content in the liver acinus ([3]; rabbit, in vivo) | Liver tissue morphology ([3]; rabbit, in vivo) | Compound | HDL [2, 4] [mg/dL] | TC [2, 4] | Atherogenic index (AI) (Sprague-Dawley rats) | Increase of HDL-cholesterol to total cholesterol as compared to the control group (Sprague-Dawley rats) [%] | Reduction of atherogenic index as compared to the control group (Sprague-Dawley rats) [%] | Reduction of neutral fat level as compared to the control group (Sprague-Dawley rats) [%] | Reduction of total plasma cholesterol level as compared to the control group (Sprague-Dawley rats) [%] | HDL-cholesterol (Sprague-Dawley rats) [mg/dL] | Neutral fat (Sprague-Dawley rats) [mg/dL] | Total cholesterol (Sprague-Dawley rats) [mg/dL] | HDL-cholesterol/total cholesterol (Sprague-Dawley rats) [%] | ACAT activity (ACAT) [pmol/minute/mg protein] | ACAT activity inhibition (ACAT) [%] | other results
1 | no pathogenic abnormality was found | 3.71 ± 0.35 | not observed any abnormality | COC(=O)C(CO)NC(=O)CCc1ccc(O)c(O)c1 (centres unmarked) [BN30063, 2-[3-(3,4-dihydroxyphenyl)propionylamino]-3-hydroxy propionic acid methyl ester] | 81 ± 16 | 1643 ± 194 mg/dL | 1.39 | 78.28 | 57.75 | 49.41 | 29.8 | 28.97 | 52.31 | 68.06 | 43.25 | 186.56 | 0 | –
2 | – | – | – | CC[C@H](C)C(=O)O[C@H]1C[C@@H](C)C=C2C=C[C@H](C)[C@H](CC[C@@H]3C[C@@H](O)CC(=O)O3)[C@H]21 [Lovastatin, reference compound] | 70 ± 6 | 1739 ± 86 mg/dL | 2.58 | 20 | 21.58 | 18.92 | 10 | 24.83 | 83.85 | 86.51 | 29.13 | 166.66 | 10.46 | GOT [2, 4]: 105 ± 47^b IU/L; GPT [2, 4]: 47 ± 18 IU/L; GOT and GPT compared among the test groups ([2]; associated with hepatotoxicosis): highest GOT and GPT values among the test groups; Grade of abnormal fat content in the liver acinus ([3]; 1+ (0–25%), 2+ (26–50%), 3+ (51–75), 4+ (76–100%), rabbits, 1% cholesterol diet, 8 weeks, average ± standard deviation): 3.83 ± 0.5^b; Liver tissue morphology ([3]; rabbits, 1% cholesterol diet, 8 weeks): a grade higher than that of the control group
3 | no pathogenic abnormality was found | 3.70 ± 0.10 | not observed any abnormality | CC(C)CC(NC(=O)CCc1ccc(O)c(O)c1)C(=O)O (centres unmarked) [BN30064, 2-[3-(3,4-dihydroxyphenyl)propionylamino]-4-methyl pentanoic acid] | 85 ± 15 | 1596 ± 191^b mg/dl | 1.61 | 68.10 | 51.06 | 29.35 | 21.92 | 28.49 | 73.07 | 75.71 | 40.78 | 152.49 | 18.07 | HDL compared to the control group [2]: significantly increased value; Total cholesterol compared to the control group [2]: significantly low
4 | no pathogenic abnormality was found | 3.82 ± 0.8 | not observed any abnormality | O=C(O)CC(NC(=O)CCc1ccc(O)c(O)c1)C(=O)O (centres unmarked) [BN30067, 2-[3-(3,4-dihydroxyphenyl)propionylamino]-succinic acid] | 81 ± 14 | 1710 ± 251 mg/dL | 1.96 | 42.70 | 40.43 | 63.87 | 27.82 | 23.81 | 37.37 | 69.99 | 34.62 | 160.01 | 14.03 | –
